In brackets after ≈: the same amount, converted by molar mass.
Assays:
[1] = system: Mycobacterium tuberculosis; assay: microbe, parasite or virus in culture; details: H37Rv, 168 h
Description: Antimycobacterial activity against Mycobacterium tuberculosis H37Rv after 7 days by resazurin reduction microplate assay

[2] = Cytotoxicity against human HepG2 cells assessed as viability at 10 uM after 72 hrs by MTT assay relative to control; format: cell-based; details: read-out: Activity
[3] = Permeability of the compound at 1 uM […] by PAMPA; format: physicochemical; details: read-out: permeability
[4] = Half life in human liver S9 fraction at 2 uM by HPLC-MS/MS analysis; format: ADME, tissue-based
[5] = Thermodynamic solubility of the compound in 0.1N HCl at pH 1.5 after 24 hrs by HPLC method; format: physicochemical; details: read-out: Therm_solubility
[6] = Cytotoxicity against mouse N9 cells assessed as viability at 10 uM after 72 hrs by MTT assay relative to control; format: cell-based; details: read-out: Activity
[7] = Kinetic solubility in water at pH 5.8; format: physicochemical; details: read-out: Kinetic_solubility
[8] = Cytotoxicity against human HaCaT cells assessed as viability at 10 uM after 72 hrs by MTT assay relative to control; format: cell-based; details: read-out: Activity
[9] = system: Mycobacterium tuberculosis; assay: microbe, parasite or virus in culture; details: PE-003, 168 h
Description: Antimycobacterial activity against Mycobacterium tuberculosis PE-003 clinical isolate after 7 days by resazurin reduction microplate assay

[10] = Thermodynamic solubility of the compound in acetate buffer at pH 4 after 24 hrs by HPLC method; format: physicochemical; details: read-out: Therm_solubility
[11] = Kinetic solubility in PBS at pH 7.4; format: physicochemical; details: read-out: Kinetic_solubility
[12] = system: Mycobacterium tuberculosis; assay: microbe, parasite or virus in culture; details: CDCT-4 (1105/09), 168 h
Description: Antimycobacterial activity against Mycobacterium tuberculosis CDCT-4 (1105/09) clinical isolate after 7 days by resazurin reduction microplate assay

[13] = Cytotoxicity against mouse RAW264.7 cells assessed as viability at 10 uM after 72 hrs by MTT assay relative to control; format: cell-based; details: read-out: Activity
[14] = Cytotoxicity against African green monkey Vero cells assessed as viability at 10 uM after 72 hrs by MTT assay relative to control; format: cell-based; details: chlorocebus sabaeus, read-out: Activity
[15] = Intrinsic clearance in human liver S9 fraction at 2 uM by HPLC-MS/MS analysis; format: ADME, tissue-based
[16] = system: Mycobacterium tuberculosis; assay: Bactericidal activity against Mycobacterium tuberculosis H37Rv infected in mouse RAW264.7 cells assessed as bacterial colony formation at 5 uM after 5 days (reference value: 4.1 to 4.73 log10CU); format: functional

With `CCc1cc(OCC(=O)Nc2ccccc2OC)c2cc(OC)ccc2n1` as the compound, how does the MIC [1] read?
Its MIC is 0.86 µM.

With `COc1ccc2nc(C)cc(OCc3ccc4ccccc4c3)c2c1` as the compound, how does the MIC [1] read?
The MIC was 1.9 µM.

Which viability at 72 h, 10 µM [2] does the source give for `COc1ccc2nc(C)cc(OCC(=O)Nc3ccc(C)c(C)c3)c2c1` here?
Its viability at 72 h, 10 µM is 71%.

What about the Papp at 1 µM [3] of the same compound?
The Papp at 1 µM was 59 nm/s.

What about the half-life at 2 µM [4] of the same compound?
Its half-life at 2 µM is 14.2 min.

What about the solubility thermodynamic at 24 h [5] of the same compound?
The solubility thermodynamic at 24 h was 80 µM (≈ 28 µg/mL).

What about the viability at 72 h, 10 µM [6] of the same compound?
The viability at 72 h, 10 µM was 105%.

What about the solubility kinetic [7] of the same compound?
The solubility kinetic was 10.4 µM (≈ 3.64 µg/mL).

And the viability at 72 h, 10 µM [8]?
The viability at 72 h, 10 µM was 94%.

And the MIC [9]?
Its MIC is 0.04 µM (≈ 0.014 µg/mL).

What about the solubility thermodynamic at 24 h [10] of the same compound?
Its solubility thermodynamic at 24 h is 410 µM (≈ 144 µg/mL).

And the solubility kinetic [11]?
The solubility kinetic was 10.7 µM (≈ 3.75 µg/mL).

What about the MIC [12] of the same compound?
Its MIC is 0.11 µM (≈ 0.0385 µg/mL).

What about the MIC [1] of the same compound?
The MIC was 0.11 µM.

What about the viability at 72 h, 10 µM [13] of the same compound?
Its viability at 72 h, 10 µM is 88%.

What about the viability at 72 h, 10 µM [14] of the same compound?
The viability at 72 h, 10 µM was 85%.

What about the CLhep predicted at 2 µM [15] of the same compound?
The CLhep predicted at 2 µM was 0.972 L/h/kg.

What about the Activity [16] of the same compound?
The Activity was 3.35 log10CFU.

With `COc1ccccc1NC(=O)COc1cc(C)nc2ccc(F)cc12` as the compound, how does the MIC [1] read?
The MIC was 14.7 µM.

For `COc1ccc2nc(C)cc(NCC(=O)Nc3ccc4ccccc4c3)c2c1`, which MIC [1] is on record?
The MIC was 6.73 µM.

With `COc1ccccc1NC(=O)COc1cc(C)nc2ccc(C(F)(F)F)cc12` as the compound, how does the MIC [1] read?
The MIC was over 25.6 µM.

With `CCc1ccc(NC(=O)COc2cc(C)nc3ccc(OC)cc23)cc1` as the compound, how does the viability at 72 h, 10 µM [2] read?
Its viability at 72 h, 10 µM is 75%.

And the half-life at 2 µM [4]?
Its half-life at 2 µM is 12.8 min.

And the solubility thermodynamic at 24 h [5]?
Its solubility thermodynamic at 24 h is 790 µM (≈ 277 µg/mL).

And the viability at 72 h, 10 µM [6]?
Its viability at 72 h, 10 µM is 112%.

And the solubility kinetic [7]?
Its solubility kinetic is 5.2 µM (≈ 1.82 µg/mL).

What about the viability at 72 h, 10 µM [8] of the same compound?
Its viability at 72 h, 10 µM is 96%.

And the MIC [9]?
The MIC was 0.006 µM (≈ 0.0021 µg/mL).

What about the solubility thermodynamic at 24 h [10] of the same compound?
Its solubility thermodynamic at 24 h is 430 µM (≈ 151 µg/mL).

And the solubility kinetic [11]?
Its solubility kinetic is 3.8 µM (≈ 1.33 µg/mL).

What about the MIC [12] of the same compound?
Its MIC is under 0.06 µM.

What about the MIC [1] of the same compound?
Its MIC is 0.06 µM.

And the viability at 72 h, 10 µM [13]?
Its viability at 72 h, 10 µM is 91%.

And the viability at 72 h, 10 µM [14]?
Its viability at 72 h, 10 µM is 80%.

What about the CLhep predicted at 2 µM [15] of the same compound?
The CLhep predicted at 2 µM was 0.996 L/h/kg.

And the Activity [16]?
The Activity was 2.81 log10CFU.

Which MIC [1] does the source give for `COc1ccc2nc(C)cc(OCC(=O)N3CCCCC3)c2c1` here?
The MIC was over 31.8 µM.

Which MIC [12] does the source give for `CO[C@H]1/C=C/O[C@@]2(C)Oc3c(C)c(O)c4c(O)c(c(/C=N/N5CCN(C)CC5)c(O)c4c3C2=O)NC(=O)/C(C)=C\C=C\[C@H](C)[C@H](O)[C@@H](C)[C@@H](O)[C@@H](C)[C@H](OC(C)=O)[C@@H]1C` [RIFAMPIN] here?
Its MIC is over 100 µM.

And the MIC [1]?
Its MIC is 0.038 mg/L.

And the Activity [16]?
The Activity was 2.44 log10CFU.

Which MIC [1] does the source give for `CCCc1cc(OCC(=O)Nc2ccccc2OC)c2cc(OC)ccc2n1` here?
Its MIC is over 26.3 µM.

With `CN[C@@H]1[C@H](O[C@H]2[C@H](O[C@H]3[C@H](O)[C@@H](O)[C@H](N=C(N)N)[C@@H](O)[C@@H]3N=C(N)N)O[C@@H](C)[C@]2(O)C=O)O[C@@H](CO)[C@H](O)[C@H]1O` [STREPTOMYCIN] as the compound, how does the MIC [1] read?
The MIC was 0.31 mg/L.

Which MIC [1] does the source give for `COc1ccc2nc(C)cc(OCC(=O)N(C)c3ccccc3OC)c2c1` here?
The MIC was over 27.3 µM.

Which MIC [1] does the source give for `COc1ccccc1NC(=O)COc1cc(C)nc2ccc(Br)cc12` here?
The MIC was 0.78 µM.

For `CC[C@@H](CO)NCCN[C@@H](CC)CO` [ETHAMBUTOL], which MIC [1] is on record?
Its MIC is 2.5 to 5 mg/L.

With `COc1ccccc1NC(=O)COc1cc(C)nc2ccc(Cl)cc12` as the compound, how does the MIC [1] read?
The MIC was 1.75 µM.

Which viability at 72 h, 10 µM [2] does the source give for `CCCCc1ccc(NC(=O)COc2cc(C)nc3ccc(OC)cc23)cc1` here?
The viability at 72 h, 10 µM was 78%.

And the half-life at 2 µM [4]?
The half-life at 2 µM was 13.7 min.

And the solubility thermodynamic at 24 h [5]?
Its solubility thermodynamic at 24 h is 240 µM (≈ 90.8 µg/mL).

What about the viability at 72 h, 10 µM [6] of the same compound?
The viability at 72 h, 10 µM was 107%.

What about the solubility kinetic [7] of the same compound?
Its solubility kinetic is 2.2 µM (≈ 0.833 µg/mL).

And the viability at 72 h, 10 µM [8]?
Its viability at 72 h, 10 µM is 105%.

What about the MIC [9] of the same compound?
Its MIC is 0.008 µM (≈ 0.00303 µg/mL).

And the solubility thermodynamic at 24 h [10]?
Its solubility thermodynamic at 24 h is 50 µM (≈ 18.9 µg/mL).

What about the solubility kinetic [11] of the same compound?
The solubility kinetic was 2.3 µM (≈ 0.87 µg/mL).

And the MIC [12]?
The MIC was under 0.05 µM.

What about the MIC [1] of the same compound?
Its MIC is 0.1 µM.

What about the viability at 72 h, 10 µM [13] of the same compound?
The viability at 72 h, 10 µM was 91%.

And the viability at 72 h, 10 µM [14]?
Its viability at 72 h, 10 µM is 90%.

What about the CLhep predicted at 2 µM [15] of the same compound?
The CLhep predicted at 2 µM was 0.978 L/h/kg.

And the Activity [16]?
The Activity was 3.05 log10CFU.
